# Test results reported in patent US20100184674A1, “PROADRENOMEDULLIN ALONE OR IN COMBINATION WITH BIG GASTRIN I AS A THERAPEUTIC AGENT” (priority 2007, published 2010).
# Where no end group is shown, it is not given here. [ ]: non-standard residue; d: D form. pGlu = O=C1CC[C@@H](C(=O)O)N1
# Experiments:
# [1] = test system: HIV-1IIIB; test: HIV-1 antiviral assay in CEM-SS cells (MTS readout)
# [2] = test system: HCMV strain AD169; test: HCMV plaque formation assay in MRC-5 cells; details: for inhibition of HCMV plaque formation as compared to the virus control: 10 micrograms per ml, 7-10 days
# [3] = test system: hepatitis B virus (HBV) ayw strain; test: HBV assay in HepG2-2.2.15 cells (TaqMan PCR of secreted HBV DNA); assay type: cell-based; details: 10 micrograms per ml; six days; combination 0.95 mole peptide 1 and 1.05 mole peptide 2
# From the text: HepG2-2.2.15 is a stable cell line containing the hepatitis B virus (HBV) ayw strain genome (ATCC Cat. No. CRL-11997). Antiviral compounds blocking any late step of viral replication such as transcription, translation, pregenome encapsidation, reverse transcription, particle assembly and release can be identified and characterized using this cell line. In this assay, an active compound will reduce the production of secreted HBV from cells, measured by utilizing real time quantitative PCR (TaqMan) assay to directly and accurately measure HBV DNA copies. […] After 16-24 hours the confluent monolayer of HepG2-2.2.15 cells was washed and the medium was replaced with complete medium containing test peptides—10 micrograms per ml—in duplicate. Lamivudine (3TC) was used as the positive control, while media alone was added to the cells as a negative control (virus control). […] Six days following the initial administration of the peptides, the cell culture supernatants was collected, treated with pronase and DNAse and then used in a real-time quantitative TaqMan PCR assay. The PCR-amplified HBV DNA was detected in real-time by monitoring increases in fluorescence signals that result from the exonucleolytic degradation of a quenched fluorescence probe molecule that hybridizes to the amplified HBV DNA. […] Antiviral activity was calculated from the reduction in HBV DNA levels (% virus control). […]
# [4] = test system: murine spleen cells; test: Th1/Th2 cytokine profiling assay (Ovalbumin restimulation); assay type: cell-based, Balb/c mice; details: 10 micrograms per ml, 72 hours
# [5] = test system: Primary Human endothelial cells (HUVEC); test: Endothelial cell migration assay; assay type: cell-based; details: 10 micrograms per ml; 22 hours
# [6] = test system: HUVEC; test: Endothelial tube formation assay; assay type: cell-based, human; details: 10 micrograms per ml; 20 hours
# Experimental: The endothelial tube formation assay is based on the ability of endothelial cells to form three-dimensional capillary-like tubular structures when cultured on a gel of basement membrane extract. […] Pre-labeled HUVEC with Calcein AM were seeded in a 96-well culture plate coated with extracellular metrix (Chemicon international Cat. ECM625) and treated with test peptides—10 micrograms per ml—in full growth medium. Positive control wes vehicle only. The endothelial cells were allowed to form tubes foe 20 hours and were then examined under an inverted fluorescent microscope. Duplicate wells for each treatment were photographed and quantitatevily analyzed for an average tubule length using image analysis software ImageProPlus. Raw data were expressed as average tubule lengths in pixels ±standard deviation. Statistic p values were computed using the Student's t-test.
# [7] = combination 0.95 mole peptide 1 and 1.05 mole peptide 2
Molecule,antiviral activity of positive control compounds [1],inhibition of HBV replication as compared to the virus control infection [3] [%],"change of the production of IFN-γ [4, 7]","change of the production of TNF-alpha [4, 7]",inhibition of the migration of human endothelial cells [5],inhibition of HCMV plaque formation as compared to the virus control [2],other results
Cc1cn([C@H]2C[C@H](N=[N+]=[N-])[C@@H](CO)O2)c(=O)[nH]c1=O [AZT],expected levels of antiviral activity,,,,,,
"Nc1nc(O)c2ncn(COC(CO)CO)c2n1 [Ganciclovir, reference compound]",,,,,,,"antiviral activity of positive control compound ([2]; positive control, MRC-5 cells, HCMV AD169): expected levels of antiviral activity"
CC(C)(C)NC(=O)[C@@H]1CN(Cc2cccnc2)CCN1C[C@@H](O)C[C@@H](Cc1ccccc1)C(=O)N[C@H]1c2ccccc2C[C@H]1O [indinavir],expected levels of antiviral activity,,,,,,
Ala-Arg-Leu-Asp-Val-Ala-Ser-Glu-Phe-Arg-Lys-Lys-Trp-Asn-Lys-Trp-Ala-Leu-Ser-Arg-NH2 (ARLDVASEFRKKWNKWALSR-NH2) [Peptide 1],,10.0,did not significantly change,did not significantly change,did not inhibit,did not inhibit,"production of IL-2, induced by [4]: 44.3%; production of IL-4, induced by [4]: 43.2%; change of the production of IL-5 [4, 7]: did not significantly change"
Pyr-Leu-Gly-Pro-Gln-Gly-Pro-Pro-His-Leu-Val-Ala-Asp-Pro-Ser-Lys-Lys-Gln-Gly-Pro-Trp-Leu-Glu-Glu-Glu-Glu-Glu-Ala-Tyr-Gly-Trp-Met-Asp-Phe-NH2 ([pGlu]LGPQGPPHLVADPSKKQGPWLEEEEEAYGWMDF-NH2; SMILES CSCC[C@H](NC(=O)[C@H](Cc1c[nH]c2ccccc12)NC(=O)CNC(=O)[C@H](Cc1ccc(O)cc1)NC(=O)[C@H](C)NC(=O)[C@H](CCC(=O)O)NC(=O)[C@H](CCC(=O)O)NC(=O)[C@H](CCC(=O)O)NC(=O)[C@H](CCC(=O)O)NC(=O)[C@H](CCC(=O)O)NC(=O)[C@H](CC(C)C)NC(=O)[C@H](Cc1c[nH]c2ccccc12)NC(=O)[C@@H]1CCCN1C(=O)CNC(=O)[C@H](CCC(N)=O)NC(=O)[C@H](CCCCN)NC(=O)[C@H](CCCCN)NC(=O)[C@H](CO)NC(=O)[C@@H]1CCCN1C(=O)[C@H](CC(=O)O)NC(=O)[C@H](C)NC(=O)[C@@H](NC(=O)[C@H](CC(C)C)NC(=O)[C@H](Cc1c[nH]cn1)NC(=O)[C@@H]1CCCN1C(=O)[C@@H]1CCCN1C(=O)CNC(=O)[C@H](CCC(N)=O)NC(=O)[C@@H]1CCCN1C(=O)CNC(=O)[C@H](CC(C)C)NC(=O)[C@@H]1CCC(=O)N1)C(C)C)C(=O)N[C@@H](CC(=O)O)C(=O)N[C@@H](Cc1ccccc1)C(N)=O) [Peptide 2],,11.3,did not significantly change,did not significantly change,35%,did not inhibit,"production of IL-2, suppressed by [4]: 100%; production of IL-4, suppressed by [4]: 100%; production of IL-5, deceased by [4]: 44.5%; inhibition of the tube formation of human endothelial cells [6]: 9%"
